Laboratory results reported in publication PMC4956231, “Molecular Mechanisms for Drug Hypersensitivity Induced by the Malaria Parasite’s Chloroquine Resistance Transporter” (PLoS Pathogens, 2016).

How the values were obtained:
76K-PfCRT^K1 = assay: Trans-stimulation of [3H]CQ uptake by microinjected compound in oocytes; type: cell-based, Plasmodium falciparum; conditions: oocytes expressing 76K-PfCRT^K1, microinjected amantadine
Procedure: (§1) A subset of experiments measured the ability of unlabeled amantadine to trans-stimulate the uptake of [^3H]CQ into the oocyte. Immediately prior to the commencement of the experiment, the oocytes (days 3–4 post-injection of the cRNA) were microinjected with either amantadine (estimated intracellular concentrations of 1, 2.5, 5, 10, 15, or 20 mM) or a control treatment (buffer, spermine, or histidine; the estimated intracellular concentrations of spermine and histidine were 5 and 10 mM). The volume injected was 50 nL and the intracellular concentrations were calculated using previous estimates of the volume of stage V-VI oocytes (~400 nL [77]). The resealed oocytes were then incubated at 16–18°C in OR^2+ buffer for approximately 5 min and the influx of [^3H]CQ was measured as described above. […] The Michaelis-Menten equation was then fitted to the data to derive the kinetic parameters for the trans-stimulation of [^3H]CQ transport by amantadine.

PfCRT^3D7 = assay: as above; type: cell-based, Plasmodium falciparum; conditions: oocytes expressing PfCRT^3D7, microinjected amantadine
Procedure: as §1

PfCRT^K1 = assay: as above; type: cell-based, Plasmodium falciparum
Procedure: as §1

P. falciparum Dd2 = conditions: Dd2 (PfCRT^Dd2); IC50 in line divided by IC50 in drug-sensitive reference strain; cited from earlier work
[1] = tested on: P. falciparum line 106/1^76N; conditions: 106/1^76N (76N-PfCRT^K1); IC50 in line divided by IC50 in drug-sensitive reference strain; cited from earlier work

SMILES | effect on accumulation of [3H]CQ (trans-stimulation) (76K-PfCRT^K1) | effect on accumulation of [3H]CQ (trans-stimulation) (PfCRT^3D7) | Hill coefficient (trans-stimulation of [3H]CQ uptake) (PfCRT^K1; PfCRT^K1) | increase in the rate of CQ influx (trans-stimulation) (PfCRT^K1; oocytes expressing PfCRT^K1 microinjected with unlabeled amantadine) [pmol per oocyte/h] | Drug susceptibility (In vitro resistance index) (P. falciparum Dd2) | Drug susceptibility (In vitro resistance index) [1]
NC12CC3CC(CC(C3)C1)C2 [amantadine] | did not affect | did not affect | 1.63 ± 0.12 | 6.4 ± 0.2 |  | 
CCN(CC)CCCC(C)Nc1ccnc2cc(Cl)ccc12 (stereo not drawn) [CQ, chloroquine] |  |  |  |  | 11.78 ± 0.18 | 8.60 ± 0.90
